Data: US11523997B2, “Method of providing celiprolol therapy to a patient” (Assistance Publique-Hôpitaux de Paris (AP-HP), priority 2017, dated 2022)

Tests used:
[1] = tested on: patients with molecularly confirmed vascular EDS; assay: Cohort follow-up: incidence of acute arterial events and hospitalizations; format: in vivo, human
Experimental: (§1) All patients with clinically and molecularly diagnosed vEDS that were actively followed clinically in the French National Referral Centre for Rare Vascular Diseases (HEGP, AP-HP, Paris, France) between January 2000 and March 2017 were screened for participation. During the initial evaluation of the first affected family member seeking medical attention for symptoms related to vEDS (index case), familial medical history was recorded and investigation performed in the first-degree relatives whenever possible. A dedicated database for vEDS was created at our institution in 2011. All relevant clinical data of every vEDS patient followed by our centre was entered into this database retrospectively from the year 2000 until 2011, and prospectively thereafter until Mar. 15, 2017. The database contains all available medical history related to the pathology before the initial work-up and obtained during the follow-up either through systematic visits or those caused by a new clinical event. Thus, the occurrence of any acute arterial, gastrointestinal, pulmonary and other vEDS-related events was systematically recorded. In case of death during follow-up, the time and cause of death were entered into the database. This study was formally approved by the IDF ethics committee (IRB registration #00001072) and the database was held in compliance with French legislation on patient privacy.
(§2) All vEDS patients benefited from standardized whole body arterial monitoring by Doppler Ultrasound (DUS) and CT angiogram and/or MRA. Such investigations were performed at baseline (initial assessment at molecular diagnosis) and was repeated every 12 to 15 months in asymptomatic patients. For arterial events that occurred before molecular diagnosis, location of arterial segments was retrieved from hospitalization and imaging reports or examinations, when available. In case of an acute arterial event, symptomatic arterial beds/segments were monitored by any necessary diagnostic and therapeutic means (CT-angiogram, DUS, angiography in case of embolization). […] For optimized management of arterial, gastrointestinal, and pulmonary emergencies, patients were given direct access to the medical team of our centre.
In order to assess arterial morbidity over a long timeline in patients with different follow-up periods, an empirical arterial score was designed for each subject. […]
Quantitative data were expressed as number, median, first and third quartiles; qualitative data were expressed as number and percentage. […] Quantitative variables were compared with the Wilcoxon-Mann-Whitney or the Kruskal Wallis tests, as appropriate. […]

[2] = tested on: patients with molecularly confirmed vascular EDS; assay: Cohort follow-up: tolerance of celiprolol with 3-month up-titration; format: in vivo, human
Experimental: (§3) Since the publication of the BBest trial in 2011, all included patients followed by our centre and not already treated with celiprolol were offered to switch to celiprolol. Patients who were not part of the trial and who were diagnosed during or since the termination of the BBest trial were treated with celiprolol starting at molecular diagnosis. Initial dosing of celiprolol was 100 mg once daily and increased by 100 mg/day every month over a 3-month period to reach the dose of 400 mg/day (200 mg twice daily) (celiprolol hydrochloride). In case of signs of intolerance (fatigue, dizziness) during up-titration or follow-up, the dose of celiprolol was reduced by 100 mg/day until the highest tolerated dose was reached. Dose adjustments were made whenever necessary throughout the patient's follow-up if intolerance was suspected. In accordance with the treatment protocol of the BBEST trial, patients were up-titrated to a maximum dose of 200 mg twice daily.
Adherence to medication was verified by open interview of the patients at each follow-up visit. Low medication adherence was considered if patients admitted to not taking their medication regularly at any moment of their follow-up. Patients were considered intolerant to celiprolol in case of refusal to follow the prescription even at a minimum dose of 100 mg/day. Patients taking another beta-blocker were offered to switch to celiprolol but this change was not mandatory, especially if patients had been clinically silent until molecular diagnosis while under another betablocker. If an acute arterial event occurred, patients were once again offered to switch to celiprolol. To reach significant numbers to allow comparative analysis, intolerant patients, patients not taking celiprolol, patients taking another betablocker and non-adherent patients were merged into one group further referred to as “not treated”.

[3] = tested on: patients with molecularly confirmed vascular EDS; assay: Long-term cohort follow-up of vEDS patients treated with celiprolol: patient survival (Kaplan-Meier, Cox model); format: in vivo, human; set-up: Survival of patients at 1 year of follow-up / Survival of patients at 5 years of follow-up / Survival of patients at 10 years of follow-up / Overall patient survival (Kaplan-Meier) / Survival at end of follow-up in those treated with celiprolol / Survival according to type of variant: Group I / Survival according to type of variant: Group II / Survival according to type of variant: Group III: concentration or dose not given beside the values
Experimental: as §1, §2, §3
Adherence to medication was verified by open interview of the patients at each follow-up visit. Low medication adherence was considered if patients admitted to not taking their medication regularly at any moment of their follow-up. Patients were considered intolerant to celiprolol in case of refusal to follow the prescription even at a minimum dose of 100 mg/day. Patients taking another beta-blocker were offered to switch to celiprolol but this change was not mandatory, especially if patients had been clinically silent until molecular diagnosis while under another betablocker. If an acute arterial event occurred, patients were once again offered to switch to celiprolol. […]

[4] = tested on: patients with a phenotype of vEDS or molecularly proven vEDS; conditions: final 200 mg twice a day (BID); 5-year follow-up; 18-month up-titration; cited from earlier work
[5] = whole cohort, 90.3% on celiprolol by end of study
[6] = Cox's model, stepwise method, n=132
[7] = multivariate Cox's model, n=132 (Groups I and II)

Question: Which “Odds ratio (OR), rate of hospitalizations for acute arterial event before and after 2011” value ([1]; before vs after systematic introduction of celiprolol (2011)) does the source give for `CCN(CC)C(=O)Nc1ccc(OCC(O)CNC(C)(C)C)c(C(C)=O)c1` (stereo not shown) [celiprolol, N′-(3-Acetyl-4-(3-((1,1-dimethylethyl)amino)-2-hydroxypropoxy)phenyl)-N, N-diethylurea] here?
Answer: Its value is 1.72.

Question: And the “Effect of celiprolol on mean age of occurrence of first and second new arterial event” value ([1]; in vivo)?
Answer: The value was “without identifiable effect”.

Question: And the “Cumulative incidence of a first new arterial event during follow-up” value [1, 5]?
Answer: The value was 56.8%.

Question: And the “Cumulative incidence of a second new arterial event during follow-up” value [1, 5]?
Answer: Its value is 29.8%.

Question: And the “Celiprolol intolerance and side effects with about three-month up-titration” value ([2]; full dose, up-titration of about three months)?
Answer: The value was “without significant increase”.

Question: And the “Patients requiring dose reduction due to fatigue and/or dizziness” value ([2]; human, in vivo)?
Answer: The value was 3.47%.

Question: What about the “Patients who declared themselves intolerant to celiprolol or refused to take it in fear of intolerance” value ([2]; n=2 of 144) of the same molecule?
Answer: Its value is 1.4%.

Question: What about the “Observed reduction in mortality: dose dependence” value ([3]; 400 mg/day better than a smaller dose) of the same molecule?
Answer: Its value is “dose-dependent”.

Question: What about the “Hazard ratio, celiprolol treatment Full dose/No” value [3, 6] of the same molecule?
Answer: The value was 0.060.

Question: And the “Hazard ratio, celiprolol treatment Half dose/No” value [3, 6]?
Answer: The value was 0.305.

Question: What about the “Hazard ratio, treatment duration ≥6 years/<6 years” value [3, 6] of the same molecule?
Answer: The value was 0.058.

Question: What about the “Survival according to type of variant: Group I” value ([3]; Group I (glycine missense), n=144 cohort) of the same molecule?
Answer: The value was 65.1%.

Question: What about the “Survival according to type of variant: Group II” value ([3]; Group II (splice-site variants, insertions/deletions, duplications)) of the same molecule?
Answer: Its value is 89.6%.

Question: What about the “Survival according to type of variant: Group III” value ([3]; Group III (haploinsufficiency)) of the same molecule?
Answer: The value was 100%.

Question: What about the “Survival at end of follow-up in those treated with celiprolol” value ([3]; Groups I and II (n=132), treated n=110) of the same molecule?
Answer: The value was 80.7%.

Question: And the “Survival at end of follow-up according to daily dose: celiprolol 400 mg/day” value ([3]; Groups I and II, 400 mg/day)?
Answer: Its value is 85%.

Question: What about the “Survival at end of follow-up according to daily dose: celiprolol 100-300 mg/day” value ([3]; Groups I and II, 100-300 mg/day) of the same molecule?
Answer: The value was 62.8%.

Question: What about the “Hazard ratio, celiprolol treatment Full dose/No” value [3, 7] of the same molecule?
Answer: The value was 0.048.

Question: And the “Hazard ratio, celiprolol treatment Half dose/No” value [3, 7]?
Answer: The value was 0.303.

Question: And the “Hazard ratio, treatment duration ≥6 years/<6 years” value [3, 7]?
Answer: The value was 0.058.

Question: What about the “Survival of patients at 1 year of follow-up” value ([3]; n=144, 1 year) of the same molecule?
Answer: The value was 98.6%.

Question: And the “Survival of patients at 5 years of follow-up” value ([3]; n=144, 5 years)?
Answer: Its value is 92%.

Question: And the “Survival of patients at 10 years of follow-up” value ([3]; n=144, 10 years)?
Answer: Its value is 82.7%.

Question: And the “Overall patient survival (Kaplan-Meier)” value ([3]; n=144 vascular EDS patients, end of follow-up)?
Answer: The value was 71.6%.

Question: And the “Deceased patients with celiprolol treatment (Yes), %” value ([3]; of N=17 deceased patients)?
Answer: Its value is “(52.9%)”.

Question: What about the “Alive patients with celiprolol treatment (Yes), %” value ([3]; of N=127 alive patients) of the same molecule?
Answer: The value was “(87.4%)”.

Question: What about the “Survival of patients treated with celiprolol compared with others” value ([3]; overall conclusion) of the same molecule?
Answer: Its value is “better survival than others”.

Question: And the “reduction in morbidity and mortality” value [4]?
Answer: The value was 35%.
